From patent US20240174717A1, “AFFINITY AGENTS” (Avitide LLC, priority 2021, published 2024) come the findings set out here.

One data set has as its system exosomes. Briefly: Filter plate static binding experiment: affinity capture of exosomes by resins. Conditions: ligand conjugated to A50 beads, load 1E10 particles/mL in PBST, 60 min. The method, then: A filter plate binding experiment using Durapore Membrane.
Resins were prepared by conjugating ligands to A50 beads.

Data set [1] is described as follows: Stability of affinity resin towards sodium hydroxide (static binding before and after treatment). It is filed as physicochemical. Conditions: 0.1 M NaOH for 18 hours, then static binding experiment vs untreated resin. The method, then: Resin comprising SEQ ID No: 43 was incubated with 0.1 M NaOH for 18 hours, washed and a static binding experiment was conducted as described in example 5.

Bridges are numbered along the chain shown (N, C = ends). [ ]: non-standard residue; d: D form. (Peg)3 = 12-amino-4,7,10-trioxadodecanoic acid subunits; PEG3 = NCCOCCOCCOCCC(=O)O; code 4 = not defined here; Dap = NC[C@H](N)C(=O)O

For the substance “Ac-NYWR5VWFPHAQG4VSTA-(Peg)3K-Amide (Ac-NYWRDVWFPHAQG[code 4]VSTA[PEG3]K-NH2; lactam 5-14; not fully specified (some residues); printed as Ac-NYWR5VWFPHAQG4VSTA-(Peg)3K-Amide; reading uncertain) [SEQ ID No. 28]”, the “Ave Capture (%)” value with exosomes (ligand density 7.7 mg/mL) is reported as 38%; in the data set on exosomes (ligand density 9.8 mg/mL) it was 97%.

As for “Ac-NYWR5VWFPHAQG2VSTA-(Peg)3K-Amide (Ac-NYWRDVWFPHAQG[Dap]VSTA[(Peg)3]K-NH2; lactam 5-14) [SEQ ID No. 43]”, the “Ave Capture (%)” value was determined as 89% in the data set with exosomes (ligand density 7.4 mg/mL) and 98% in the data set with exosomes (ligand density 11.2 mg/mL). Also, the “stability of resin towards sodium hydroxide” value in data set [1] is given as “stable towards 0.1 M NaOH”.
